The nature of series [1]: Stability testing of capsules at 40° C./75% RH. It counts as physicochemical. The source says:
In some embodiments, the method disclosed herein comprises storing (keeping) a sample of the pharmaceutical product for a period of time, preferably under selected conditions of temperature and humidity. The amount (or concentration) of tasquinimod and of at least one of compounds I, II, III and IV in the sample may preferably be determined at the beginning or before the storage period and at the end of the storage period. The selected storage conditions may include a temperature in the range of, for example, 20° C. to 40° C., and a relative humidity in the surrounding atmosphere in the range of, for example, 30% to 75%; e.g. 25° C. and 60% RH, or 30° C. and 65% RH, or 35° C. and 70% RH, or 40° C. and 75% RH. The storage period may extend over a time period in the range of, for example, several weeks to several years. For example, the stability testing period (“storage period”) may be 2 weeks, 3 weeks, 1 month, 2 months, 3 months, 4 months, 5 months, 6 months, 9 months, 1 year, 18 months, 2 years, 3 years, 4 years or even 5 years or longer. A shorter storage period may be selected by use of higher storage temperature and/or higher relative humidity (RH). The total amount of a tasquinimod decomposition product in the sample at the end of the storage period may be determined by, for example, HPLC.
The batch of capsules manufactured in Example 2 was assessed by determining the amount of tasquinimod and the amount of compound III in a sample of the capsules, whereby the criterion for approving the batch was that a sample of capsules from the batch, at the end of a 1-month stability testing, contain not more than 1.0% w/w of compound III relative to the amount of tasquinimod. The stability testing consisted of keeping the capsules at 40° C./75% RH in open brown glass jars. At the end of the 1-month stability testing, the capsules contained 0.13% w/w of compound III, relative to the amount of tasquinimod (1.04 mg/capsule). Therefore, according to the selected criterion for approval, the batch of capsules was determined to be suitable for distribution.
The batch of capsules manufactured in Example 7 was assessed by determining the amount of tasquinimod and the amount of compound III in a sample of the capsules, whereby the criterion for approving the batch was that a sample of capsules from the batch, at the end of a 3-month stability testing, contain not more than 1.0% w/w of compound III relative to the amount of tasquinimod in the capsules. The stability testing consisted of keeping the capsules at 40° C./75% RH in sealed brown glass jars. At the end of the stability testing, the capsules contained 0.08% w/w of compound III, relative to the amount of tasquinimod (0.493 mg/capsule). Therefore, according to the selected criterion for approval, the batch of capsules was determined to be suitable for distribution.
The batch of capsules manufactured in Example 13 was assessed by determining the amount of tasquinimod and the amount of compound III in a sample of the capsules, whereby the criterion for approving the batch was that the capsules of the sample, at the end of a 3-month stability testing, contain not more than 1.0% w/w of compound III relative to the amount of tasquinimod in the capsules. The stability testing consisted of keeping the capsules, in a transparent, conventional blister pack, at 40° C./75% RH. At the end of the stability testing, the capsules contained 0.12% w/w of compound III, relative to the amount of tasquinimod (determined to be 0.253 mg/capsule). Therefore, according to the selected criterion for approval, the batch of capsules was determined to be suitable for distribution.

A short description of series [2]: Drug product stability studies (general observations). It counts as physicochemical. The text has this: In a drug product, compound I is formed with compound II from hydrolysis of tasquinimod. […] Compound II is further decarboxylated to form compound III.
Compound III is the decarboxylated species formed from the degradation of compound II.
The mechanism for formation of compound IV in a drug product is unknown.

Setting [3] is: 0.25 mg capsules of Example 10, 3 months, sealed brown glass jars.
[4] abbreviates: 0.25 mg capsules of Example 10, 6 months, sealed brown glass jars.
Setting [5] is: 0.25 mg capsules of Example 13, 3 months, transparent blister pack.
[6] abbreviates: 0.25 mg capsules of Example 13, 6 months, blister pack.
[7] abbreviates: 0.5 mg capsules of Example 7, 3 months, sealed brown glass jars.
The mark [8] stands for this setting: 0.5 mg capsules of Example 7, 6 months, sealed brown glass jars.
Where [9] appears, read: 1 mg capsules of Example 2, 1 month, open brown glass jars.
Setting [10] is: 1 mg capsules of Example 2, 2 months, open brown glass jars.
Setting [11] is: 1 mg capsules of Example 2, 3 months, open brown glass jars.
[12] abbreviates: 1 mg capsules of Example 2, 6 months, open brown glass jars.
Where [13] appears, read: 1 mg capsules of Example 16, 3 months, transparent blister pack.
Setting [14] is: 1 mg capsules of Example 16, 6 months, blister pack.

The record followed here is patent US20240277693A1, “A PHARMACEUTICAL PRODUCT CONTAINING TASQUINIMOD AND A METHOD FOR ASSESSING THE PURITY OF SAID PRODUCT” (ACTIVE BIOTECH AB, priority 2021, published 2024).

The structures appear in SMILES notation.

For `COc1cccc2c1c(O)c(C(=O)N(C)c1ccc(C(F)(F)F)cc1)c(=O)n2C` [Tasquinimod, 4-hydroxy-5-methoxy-N, 1-dimethyl-2-oxo-N-[4-(trifluoromethyl)phenyl]-1,2-dihydroquinoline-3-carboxamide], the “amount of tasquinimod in capsules” value in series [1] (setting [3]) was determined as 0.253 mg/capsule; in series [1] (setting [4]), 0.247 mg/capsule; in series [1] (setting [5]) it was 0.253 mg/capsule; in series [1] (setting [6]), 0.247 mg/capsule; in series [1] (setting [7]), 0.493 mg/capsule; in series [1] (setting [8]), 0.487 mg/capsule. Also, the “amount of tasquinimod in capsules” value worked out at 1.04 mg/capsule in series [1] (setting [9]); 1.04 mg/capsule in series [1] (setting [10]); 1.00 mg/capsule in series [1] (setting [11]); 1.01 mg/capsule in series [1] (setting [12]); 0.993 mg/capsule in series [1] (setting [13]); 0.985 mg/capsule in series [1] (setting [14]).

As for `COc1cccc2c1c(O)cc(=O)n2C` [Compound III, 4-hydroxy-5-methoxy-1-methylquinolin-2(1H)-one], the “amount of compound III in capsules, relative to the amount of tasquinimod” value in series [1] (setting [3]) is 0.10 % w/w; in series [1] (setting [4]) it was 0.10 % w/w; in series [1] (setting [5]) it was 0.12 % w/w; in series [1] (setting [6]), 0.24 % w/w; in series [1] (setting [7]) it was 0.08 % w/w; in series [1] (setting [8]), 0.14 % w/w. Further, the “amount of compound III in capsules, relative to the amount of tasquinimod” value is 0.13 % w/w in series [1] (setting [9]); 0.12 % w/w in series [1] (setting [10]); 0.14 % w/w in series [1] (setting [11]); 0.16 % w/w in series [1] (setting [12]); 0.13 % w/w in series [1] (setting [13]); 0.21 % w/w in series [1] (setting [14]). In series [2], the “change of the amount of the compound in tasquinimod drug product on storage” value is “increase under any conditions”.
